Reference: publication PMC7993833, “EDP-938, a novel nucleoprotein inhibitor of respiratory syncytial virus, demonstrates potent antiviral activities in vitro and in a non-human primate model” (PLoS Pathogens, 2021)
Like-named read-outs stand apart in the source and are kept apart here.

Experiments:
[1] = Plasma drug exposure in African Green monkey study; assay type: in vivo, African Green monkeys (Chlorocebus); conditions: both sexes, plasma, 100 mg/kg BID oral, read-out: mean plasma Ctrough
From the text: The African green monkey model was selected for EDP-938 in vivo studies for its higher level of viral replication versus cotton rats and BALB/c mice. […] In this previous trial, patients who achieved RSV-604 levels in excess of the EC90 experienced a 2.31 log reduction in viral load. […] The lack of antiviral activity observed with RSV-604 could be a function of relatively poor potency compared to EDP-938 (Fig 1) and/or insufficient tissue exposure. While in this study the animals were not sacrificed and thus the drug level in the lung could not be determined, plasma samples were taken at 12h after the last dose (Ctrough) to confirm drug exposure. […] It is reasonable to project that given the same dose or exposure EDP-938 should perform better than RSV-604 in RSV infected patients as well.
A study of EDP-938 and RSV-604 in the African Green monkey (AGM) animal model was performed by BIOQUAL, Inc (Rockville, Maryland). Methods were similar to those run in a study by Ispas et al.. Six (6) male and 6 female AGMs (Chlorocebus) of 4–5 kg were purchased from PrimGen (Hines, Illinois). Each animal was challenged with 2 x 10^5 PFU of RSV A2 viral inoculum (Virapur, San Diego, CA). Four animals (2 per sex) in each group were treated with EDP-938, RSV-604, or vehicle control (0.5% w/v methylcellulose). […]

[2] = test system: recombinant RSV A2-line19F, N protein mutants
[3] = test system: RSV-A and RSV-B laboratory strains; test: CPE assay, RSV laboratory strains across primate cell lines; assay type: cell-based; conditions: human respiratory syncytial virus, in Primates, read-out: EC50 values, inhibition of CPE (range over strains and cells)
Experimental: The activity of EDP-938 against both RSV-A and RSV-B was evaluated in vitro against multiple laboratory strains commonly used for antiviral screens in HEp-2 cells, human adenocarcinomic alveolar basal epithelial cells (A549), monkey kidney-derived cells (Vero), and Baby Hamster Kidney cells (BHK). Serial dilutions of the compound were added to cells infected with RSV-A at a MOI of 0.1 or RSV-B at an MOI of 0.5 and treated for 5 or 6 days, respectively.
HEp-2, Vero, and BHK were seeded at 8,000 cells per well (cpw) in growth medium (Dulbecco’s Modified Eagle Medium (DMEM) with 1% GlutaMAX, 1% Penicillin/Streptomycin (P/S), 1% Non-Essential Amino Acids (NEAA), 10% Fetal Bovine Serum (FBS)) or (Minimum Essential Medium (MEM) with 10% FBS, 1% NEAA, 1% P/S) or (Eagle’s Minimum Essential Medium with L-Glutamine, with 10% FBS, 1% P/S) respectively. A549 seeded at 3,000 cpw in F-12K Kaighn’s Modification nutrient mixture with 10% FBS, 1% NEAA, 1% P/S. Cells seeded at time of infection in 96-well plates, final well volume 100μL. Compounds suspended in DMSO, serially diluted and added to wells at 0.5% final DMSO concentration. […] Cytopathic effect (CPE) determined using ATPlite (Perkin Elmer) measured with Envision luminometer. […] All EC50s were calculated using the XLFit four-parameter logistic model 200 in Microsoft Excel.

RSV-A M37 = test: RT-qPCR assay, RSV-A M37 in HEp-2 cells; assay type: cell-based; conditions: human respiratory syncytial virus
Experimental: HEp-2, Vero, and BHK were seeded at 8,000 cells per well (cpw) in growth medium (Dulbecco’s Modified Eagle Medium (DMEM) with 1% GlutaMAX, 1% Penicillin/Streptomycin (P/S), 1% Non-Essential Amino Acids (NEAA), 10% Fetal Bovine Serum (FBS)) or (Minimum Essential Medium (MEM) with 10% FBS, 1% NEAA, 1% P/S) or (Eagle’s Minimum Essential Medium with L-Glutamine, with 10% FBS, 1% P/S) respectively. A549 seeded at 3,000 cpw in F-12K Kaighn’s Modification nutrient mixture with 10% FBS, 1% NEAA, 1% P/S. Cells seeded at time of infection in 96-well plates, final well volume 100μL. Compounds suspended in DMSO, serially diluted and added to wells at 0.5% final DMSO concentration. Viral stocks stabilized with 25% sucrose, previously titered using plaque assay, were added at desired MOI. Sucrose added to cells-only control wells to match percent added with virus. Unless otherwise noted, RSV-A strains were tested at 0.1 MOI and incubated for 5 days in a 37°C, 5% CO2 humidified incubator, and RSV-B at 0.5 MOI for 6 days. Cytopathic effect (CPE) determined using ATPlite (Perkin Elmer) measured with Envision luminometer. For RT-qPCR, RNA was extracted from whole well using Ambion RNAqueous-96 Automated Kit, and RT-qPCR run using Applied Biosystems TaqMan RNA-to-CT 1-Step Kit. […] All EC50s were calculated using the XLFit four-parameter logistic model 200 in Microsoft Excel.

[4] = test system: GS-5806- and AZ-27-resistant RSV; test: Activity against GS-5806- and AZ-27-selected resistant viruses; assay type: cell-based, respiratory syncytial virus; conditions: GS-5806- and AZ-27-resistant viruses
[5] = test system: RSV-B VR-955 EDP-938 resistant populations; test: Susceptibility of EDP-938 resistant RSV-B VR-955 populations; assay type: cell-based, respiratory syncytial virus
RSV-B VR-955 = test: RT-qPCR assay, RSV-B VR-955 in primary HBECs; assay type: cell-based; conditions: human respiratory syncytial virus, primary HBEC

For `O=C1Nc2ccccc2C(c2ccccc2)=N[C@@H]1Nc1nnc(-c2ncc(C(F)(F)F)cc2N2CCOCC2)o1` [EDP-938], the concentration at 12 h after the last dose [1] was 1480 nM, the “EC50 Fold Change vs. WT” value ([2]; recombinant RSV N K107N) was 1.2 fold and the “EC50 Fold Change vs. WT” value ([2]; recombinant RSV N K136R) was 2.7 fold. The “EC50 Fold Change vs. WT” value ([2]; recombinant RSV N L139I) was 7.2 fold, the “EC50 Fold Change vs. WT” value ([2]; recombinant RSV N M109I) was 1.6 fold and the “EC50 Fold Change vs. WT” value ([2]; recombinant RSV N M109K) was 26.9 fold. The “EC50 Fold Change vs. WT” value ([2]; recombinant RSV N M109T) was 5.4 fold, the “EC50 Fold Change vs. WT” value ([2]; recombinant RSV N N105D) was 1.3 fold and the “EC50 Fold Change vs. WT” value ([2]; recombinant RSV N S134T) was 2.2 fold. The “EC50 Fold Change vs. WT” value ([2]; recombinant RSV N V90A) was 1.0 fold, the “EC50 Fold Change vs. WT” value ([2]; recombinant RSV Wild-type (WT)) was 1.0 fold and the EC50 [3] was 28 to 72 nM. For the same molecule, the EC50 (RSV-A M37) was 54 ± 5 nM, the EC90 (RSV-A M37) was 85 ± 21 nM and the “cross resistance of GS-5806- and AZ-27-resistant strains” value [4] was “no signs of cross resistance”. For the same molecule, the “EC50 Fold Change vs. WT” value ([5]; RSV-B VR-955 Population 1, N: M109K, L139Q (dual WT/mutant population)) was 42 fold, the “EC50 Fold Change vs. WT” value ([5]; RSV-B VR-955 Population 2, N: M109T) was 6.6 fold and the “EC50 Fold Change vs. WT” value ([5]; RSV-B VR-955 Wild-Type) was 1 fold. The EC50 (RSV-B VR-955; 168 h, RSV-B VR-955 MOI 0.1, 7 days) was 64 ± 30 nM and the EC90 (RSV-B VR-955; RSV-B VR-955) was 74 ± 33 nM.
